Entries after “also recorded” stand apart in the source; their conditions may differ.
Tests used:
[1] = system: rhesus monkeys; test: Spatial delayed response task (working memory); format: in vivo, rhesus monkey
From the text: (§1) NE α-1 adrenergic receptors are positively coupled to PKC through a Gq-protein linked to the PI intracellular signaling pathway (FIG. 1). Previous studies have shown that infusion of the α-1 adrenergic receptor agonist, phenylephrine, into the prefrontal cortex impairs working memory in both rats (Arnsten et al., 1999; FIGS. 2, 6 and 10B) and monkeys (Mao et al, 1999). Likewise, systemic injections of cirazoline, an α-1 adrenergic receptor agonist that crosses the blood brain barrier, impairs working memory in monkeys (FIGS. 5 and 10C). Thus, PKC was activated indirectly by infusing phenylephrine into the prefrontal cortex in rats (5 min prior to cognitive testing), or by systemic administration of cirazoline in monkeys (intramuscular injections, 30 min prior to cognitive testing). Monkeys had been previously trained on the spatial delayed response task, the task most commonly used to assess prefrontal cortical function in nonhuman primates. The PKC inhibitor, chelerythrine, was administered directly into the prefrontal cortex in rats (5 min prior to cognitive testing), or systemically in monkeys (oral administration, 60 min prior to cognitive testing).
(§2) The anxiogenic stressor, FG7142, was administered systemically to rats (interperitonial injection) or monkeys (intramuscular injection) 30 min prior to cognitive testing. Chelerythrine was administered directly into the prefrontal cortex in rats (15 min prior to cognitive testing), or systemically in monkeys (oral administration, 60 min prior to cognitive testing). […] This cognitive impairment was blocked by chelerythrine (FIGS. 11A and 11B), consistent with stress-induced activation of PKC.
(§3) Chelerythrine was administered orally to rhesus monkeys at doses of either […] or 0.3 mg/kg 60 min before cognitive testing, 30 minutes prior to stress exposure (FG7142 0.2-1.0 mg/kg, i.m.). In addition to cognitive testing, monkeys are also assessed for changes in sedation, agitation, aggression, motivation, food intake, and both fine and gross motor abilities. Four monkeys were tested.

[2] = system: rats; test: Spatial delayed alternation task in a T maze (working memory); format: in vivo, rat
Description: (§4) The influence of PKC activation on prefrontal cortical function was tested in rats and monkeys performing spatial working memory tasks that are critically dependant upon the integrity of the prefrontal cortex. All procedures were approved by the Yale Institutional Animal Care and Use Committee. Rats were trained on the spatial delayed alternation task in a T maze, or on a control task, spatial discrimination, which has similar motor and motivational demands but depends upon the posterior cortex and not the prefrontal cortex. Performance on the delayed alternation task is dependant upon the length of the delay between trials. The delay was raised as needed to maintain each individual animals performance at approximately 70% correct, allowing room for improvement or impairment in performance following drug administration.
Following behavioral training, rats were implanted with guide cannulae to allow drug infusions into the prefrontal cortex (stereotaxic coordinates from bregma and skull surface: anterior +3.2 mm, lateral ±0.75 mm, ventral −1.7 mm). The infusion needles projected 2.8 mm below the guide cannula such that the infusion site was −4.5 mm ventral to skull surface. Rats were allowed to recover for one week following surgery. Drug treatments were administered only after the animal achieved stable performance (60-80% correct) for two consecutive days. […] The PMA-induced working memory impairment was blocked by co-administration of chelerythrine, which had no effect on performance when administered alone (FIG. 10A). In contrast, PMA (5 picograms PMA/0.5 μl) had no effect on performance of the control spatial discrimination task (10 sec delays, mean performance after vehicle: 92.0%±11.0%, mean performance after PMA: 88.0%±13.0%, p=0.587, Tdep test).
as §1, §2
(§5) Rats were injected with 0, 0.3, or 3.0 mg/kg chelerythrine s.c. in water approximately 45 minutes before cognitive testing; they receive an injection of the pharmacological stressor, FG7142 (15 mg/kg, i.p.) or vehicle 30 minutes prior to cognitive testing. All drug treatments occur at least one week apart, and the order of treatments is counterbalanced between animals. […] All ratings were performed by experimenters who were very familiar with the normative behavior of the animal but were unaware of the drug treatment conditions.

[3] = system: rats; test: Response time per trial (stress-induced freezing) during delayed alternation testing; format: in vivo, rat
Description: FIG. 11 illustrates a summary whereby treatment with chelerythrine reverses the detrimental effects of: A. stress in rats; or B. stress in monkeys. […] In A, the anxiogenic stressor, FG7142 (range: 10 to 20 mg/kg), impaired delayed alternation performance compared to vehicle treatment in rats (vehicle+vehicle vs. FG7142+vehicle: * ANOVA-R, F1,10=25.095, p=0.001). The FG7142-induced cognitive deficit was reversed by infusion of the PKC inhibitor, chelerythrine, into the prefrontal cortex 15 min prior to testing (0.3 μg/0.5 μl; FG7142+vehicle vs. FG7142+chelerythrine: † F1,10=10.170, p=0.010). […] The FG7142-induced cognitive deficit was reversed by pretreatment with the PKC inhibitor, chelerythrine (0.03 mg/kg; FG7142+vehicle vs. FG7142+chelerythrine: † F1,4=21.23, p=0.006).
For example, stressors such as FG7142 induce freezing behaviors in rodents that effectively lengthen the delays and increase the memory demands of the task (FIG. 11C).

[4] = system: rats; test: Spatial discrimination control task; format: in vivo, rat; settings: 5 picograms PMA/0.5 μl
Description: as §4
Following behavioral training, rats were implanted with guide cannulae to allow drug infusions into the prefrontal cortex (stereotaxic coordinates from bregma and skull surface: anterior +3.2 mm, lateral ±0.75 mm, ventral −1.7 mm). The infusion needles projected 2.8 mm below the guide cannula such that the infusion site was −4.5 mm ventral to skull surface. Rats were allowed to recover for one week following surgery. Drug treatments were administered only after the animal achieved stable performance (60-80% correct) for two consecutive days. […]

[5] = system: rhesus monkeys; test: Assessment of sedation, agitation, aggression, motivation, food intake and motor abilities; format: in vivo, rhesus monkey; settings: oral 0.03 or 0.3 mg/kg
Description: as §3

[6] = system: rats; test: Behavioral observations for side effects in home cage and during cognitive testing; format: in vivo, rat; settings: 0.3 or 3.0 mg/kg s.c.
Description: as §5

[7] = system: rats; settings: cited from earlier work
[8] = co-infusion into prefrontal cortex, chelerythrine 0.3 μg/0.5 μl

SMILES: CNC(=O)c1cc2c(cn1)[nH]c1ccccc12 [FG7142, reference compound]
- delayed response performance after stressor vs vehicle ([1]; monkeys, FG7142 0.2 to 2.0 mg/kg injection): significantly impaired
- delayed alternation performance after stressor vs vehicle ([2]; FG7142 10 to 20 mg/kg, 30 min prior to testing): impaired
- average response time for each trial after stressor vs vehicle ([3]; FG7142): increased response time

SMILES: CCCCCCCCCCCCCC(=O)O[C@@H]1[C@@H](C)[C@@]2(O)[C@@H](C=C(CO)C[C@]3(O)C(=O)C(C)=C[C@@H]23)[C@@H]2C(C)(C)[C@]12OC(C)=O [PMA, phorbol 12-myristate 13-acetate]
- delayed alternation performance after direct PKC activation vs vehicle ([2]; PMA infused into prefrontal cortex, 0.05 to 5 pg/0.5 μl, 10 min prior to testing): significantly impaired
- effect on performance of control spatial discrimination task [4]: no effect
- mean performance on control spatial discrimination task ([4]; 10 sec delays, vehicle 92.0%±11.0%, p=0.587): 88.0%±13.0%

SMILES: COc1ccc2c(c[n+](C)c3c4cc5c(cc4ccc23)OCO5)c1OC.[Cl-] [chelerythrine, 1,2-dimethoxy-12-methyl[1,3]benzodioxolo[5,6-c]phenanthridinium]
- tolerability / side effects [5]: well-tolerated with no side effects
- effect on FG7142-induced cognitive deficit ([1]; monkeys, chelerythrine pretreatment 0.03 mg/kg): reversed
- effect on cirazoline-induced working memory deficit ([1]; monkeys, chelerythrine pretreatment 0.03 mg/kg oral, 60 min prior to testing): reversed
- delayed response (cognitive) performance, drug on its own ([1]; monkeys, oral chelerythrine, no challenge): no effect
- share of monkeys with complete protection at the lower dose ([1]; rhesus monkeys, 0.03 mg/kg oral, other half required 0.3 mg/kg for full reversal): Half of the monkeys showed complete protection
- effect on detrimental effects of stress on prefrontal cortical function ([1]; rhesus monkeys, oral 0.03/kg or 0.3 mg/kg 60 min before testing, FG7142 0.2-1.0 mg/kg i.m., n=4, p<0.05): significantly reversed
- effect on detrimental effects of stress exposure, lower systemic dose ([2]; 0.3 mg/kg s.c., 45 min before testing, FG7142 15 mg/kg i.p., p=0.018, n=4): significantly reversed
- effect on cognitive deficits due to stress, higher systemic dose ([2]; 3.0 mg/kg s.c., FG7142 15 mg/kg i.p.): did not reverse
- average correct, drug on its own ([2]; 3.0 mg/kg s.c., no stressor, similar to vehicle): 72.5 % correct
- effect on PMA-induced working memory deficit [2, 8]: reversed; also recorded: blocked
- effect on phenylephrine-induced working memory deficit [2, 8]: significantly reversed
- effect on FG7142 (stress)-induced cognitive deficit ([2]; infusion into prefrontal cortex 0.3 μg/0.5 μl, 15 min prior to testing): significantly reversed
- effect on stress response (cognitive deficit), higher infused dose ([2]; infusion into prefrontal cortex 3.0 μg/0.51 μl): did not reverse
- performance when higher dose infused by itself ([2]; infusion into prefrontal cortex 3.0 μg/0.51 μl, no stress): no effect
- delayed alternation performance, drug on its own ([2]; infusion into prefrontal cortex, 0.3 μg/0.5 μl, no challenge): no effect
- effect on FG7142-induced increased response time ([3]; chelerythrine infused into prefrontal cortex): not blocked; also recorded: no effect on response time
- side effects with administration by itself [6]: no significant side effects

SMILES: c1ccc(C2CC2)c(OCC2=NCCN2)c1 [cirazoline, reference compound]
- delayed response performance after α-1 agonist vs vehicle ([1]; monkeys, cirazoline 0.001 to 10 μg/kg intramuscular, 30 min prior to testing): significantly impaired

SMILES: CNC[C@H](O)c1cccc(O)c1 [phenylephrine, reference compound]
- delayed alternation performance after α-1 agonist infusion vs vehicle ([2]; phenylephrine 0.1 μg/0.5 μl into prefrontal cortex, 5 min prior to testing): significantly impaired

SMILES: COc1ccccc1N1CCN(CCCNc2cc(=O)n(C)c(=O)n2C)CC1 [urapidil]
- effect on phenylephrine-induced working memory impairment (FIG. 2) ([7]; co-infusion of urapidil into prefrontal cortex): prevented
- effect on stress-induced working memory impairment (FIG. 3) ([7]; urapidil infused into prefrontal cortex): prevented

From US20050070565A1, “Chelerythrine, analogs thereof and their use in the treatment of bipolar disorder and other cognitive disorders” (priority 2003, published 2005)
